Experimental data published in EPA's ToxValDB 9.5 (doi:10.2903/j.efsa.2016.4604).
Values after ≈ are worked out from the molar mass of the structure shown.

Assays:
Cyprinus carpio = conditions: acute; duration: 96 hours; mortality
Folsomia candida = conditions: chronic/long-term; duration: 28 days
Tagia sp. = conditions: for NOEC: chronic/long-term, duration: 8 weeks
Apis mellifera = conditions: acute, mortality
Canidae = conditions: chronic; duration: 1 years; oral; diet; Dog Other; histopathology: nonneoplastic
Colinus virginianus = conditions: acute, oral, mortality
Daphnia magna = conditions: chronic/long-term; duration: 21 days; mobility
Pimephales promelas = conditions: chronic/long-term; duration: 35 days; body weight
Typhlodromus pyri = experiment: LR50; higher = less toxic; conditions: not reported; mortality

| SMILES | LC50 (Cyprinus carpio) [µg/mL] | NOEC (Folsomia candida) [mg/kg] | NOEC (Tagia sp.) [mg/kg] | LD50 (Apis mellifera; duration: 48 hours, dermal) [µg/piece] | LD50 (Apis mellifera; oral, unspecified) [µg/piece] | NOAEL (Canidae) [mg/kg-day] | LD50 (Colinus virginianus; diet) [mg/kg-day] | LD50 (Colinus virginianus) [mg/kg-day] | NOEC (Daphnia magna) [mg/L] | NOEC (Pimephales promelas) [µg/L] | NOAEL (Rattus norvegicus; acute, oral, F, clinical signs) [mg/kg-day] | LD50 (Rattus norvegicus; acute, oral, mortality) [mg/kg-day] | NOAEL (Rattus norvegicus; chronic, duration: 2 years, oral, diet, histopathology: nonneoplastic) [mg/kg-day] | NOAEL (Rattus norvegicus; reproduction developmental, M, body weight) [mg/kg-day] | LC50 (Tagia sp.; acute, duration: 14 days, mortality) [mg/kg] | LR50 (Typhlodromus pyri) [g/ha] |
| --- | --- | --- | --- | --- | --- | --- | --- | --- | --- | --- | --- | --- | --- | --- | --- | --- |
| Cc1nn(C)c(F)c1C(=O)Nc1ccccc1C(C)CC(C)(C)O (configuration not stated) | > 15.7 | 1000 | 1000 | – | – | – | – | – | – | – | – | – | – | – | – | – |
| Cc1nn(C)c(F)c1C(=O)Nc1ccccc1C(C)CC(C)C (configuration not stated) [Penflufen] | 0.103 (≈ 0.325 µM) | 231 | 33 | > 100 | > 105 | 7.7 | > 1700 | > 4000 | 1.53 | 23.4 | 50 | > 2000 | 4 | 58 | > 1000 | > 250 |
| CC(=O)c1ccccc1NC(=O)c1c(C)nn(C)c1F | > 0.799 | 1000 | 500 | – | – | – | – | – | – | – | – | – | – | – | – | – |
